Experimental data as given in ChEMBL document CHEMBL3132855, “Synthesis and antiviral evaluation of 4-(1,2,3-triazol-1-yl)thymidines” (Medchemcomm, 2014).
Activity calls are given as the source filed them. The rule behind the calls is not given here.

Experiments:
Hepatitis C virus = assay: Antiviral activity against HCV1b infected in human HuH-7 cells assessed as inhibition of viral replication at 10 uM after 3 days by luciferase assay; assay type: functional, organism-based; details: Hepacivirus hominis, genotype 1b
West Nile virus = assay: Antiviral activity against West Nile virus infected in baby hamster BHK-WII RepRen1B cells assessed as inhibition of viral replication at 10 uM after 3 days by luciferase assay; assay type: functional, organism-based
Influenza A virus [1] = assay: Antiviral activity against Influenza A/WSN/33 virus infected in human A549 cells assessed as inhibition of virus-induced cytopathic effect at 10 uM after 5 days by neutral red assay; assay type: functional; details: A/WSN/1933(H1N1), A549, 120 h
[2] = Cytotoxicity against human CEM-SS cells assessed as cell viability at 10 uM after 6 days by MTS assay; assay type: cell-based; details: read-out: Activity
[3] = test system: Human immunodeficiency virus 1; assay: Antiviral activity against HIV1 3B infected in human CEM-SS cells assessed as inhibition of virus-induced cytopathic effect at 10 uM after 6 days by MTS assay; assay type: functional; details: Human immunodeficiency virus 1, 3B, 144 h
Influenza A virus [4] = assay: Antiviral activity against Influenza A/WSN/33 virus infected in MDCK cells assessed as inhibition of virus-induced cytopathic effect at 10 uM after 5 days by neutral red assay; assay type: functional; details: A/WSN/1933(H1N1), 120 h

Cc1cn([C@H]2C[C@H](O)[C@](CO)(n3cc(C4CC4)nn3)O2)c(=O)[nH]c1=O
inhibition (Hepatitis C virus): inactive | inhibition (West Nile virus): inactive | inhibition at 10 µM (Influenza A virus [1]): 0% | viability at 144 h, 10 µM [2]: 99% | inhibition at 10 µM [3]: 0%

COc1ccc2c(-c3cn([C@]4(CO)O[C@@H](n5cc(C)c(=O)[nH]c5=O)C[C@@H]4O)nn3)cccc2c1
inhibition (Hepatitis C virus): inactive | inhibition (West Nile virus): inactive | inhibition at 10 µM (Influenza A virus [1]): 5.3% | viability at 144 h, 10 µM [2]: 95% | inhibition at 10 µM [3]: 0%

Cc1cn([C@H]2C[C@H](O)[C@](CO)(n3cc(-c4ccc(Oc5ccccc5)cc4)nn3)O2)c(=O)[nH]c1=O
inhibition (Hepatitis C virus): inactive | inhibition (West Nile virus): inactive | inhibition at 10 µM (Influenza A virus [4]): 1% | inhibition at 10 µM (Influenza A virus [1]): 48% | viability at 144 h, 10 µM [2]: 95% | inhibition at 10 µM [3]: 1%

Cc1cn([C@H]2C[C@H](O)[C@](CO)(n3cc(CSc4ccccc4)nn3)O2)c(=O)[nH]c1=O
inhibition (Hepatitis C virus): inactive | inhibition (West Nile virus): inactive | inhibition at 10 µM (Influenza A virus [1]): 3.3% | viability at 144 h, 10 µM [2]: 99% | inhibition at 10 µM [3]: 20%

Cc1cn([C@H]2C[C@H](O)[C@](CO)(n3cc(C4CCCCC4)nn3)O2)c(=O)[nH]c1=O
inhibition (Hepatitis C virus): inactive | inhibition (West Nile virus): inactive | inhibition at 10 µM (Influenza A virus [1]): 2.2% | viability at 144 h, 10 µM [2]: 96% | inhibition at 10 µM [3]: 0%

Cc1cn([C@H]2C[C@H](O)[C@](CO)(n3cc(-c4ccc(Br)cc4)nn3)O2)c(=O)[nH]c1=O
inhibition (Hepatitis C virus): inactive | inhibition (West Nile virus): inactive | inhibition at 10 µM (Influenza A virus [4]): 4% | inhibition at 10 µM (Influenza A virus [1]): 18% | viability at 144 h, 10 µM [2]: 100% | inhibition at 10 µM [3]: 60%

Cc1cn([C@H]2C[C@H](O)[C@](CO)(n3cc(C(C)O)nn3)O2)c(=O)[nH]c1=O (stereo partly specified)
inhibition (Hepatitis C virus): inactive | inhibition (West Nile virus): inactive | inhibition at 10 µM (Influenza A virus [1]): 0% | viability at 144 h, 10 µM [2]: 100% | inhibition at 10 µM [3]: 8%

CCOC(=O)C(Cc1ccc(OCc2cn([C@]3(CO)O[C@@H](n4cc(C)c(=O)[nH]c4=O)C[C@@H]3O)nn2)cc1)NC(=O)OC(C)(C)C (stereo partly specified)
inhibition (Hepatitis C virus): inactive | inhibition (West Nile virus): inactive | inhibition at 10 µM (Influenza A virus [1]): 0% | viability at 144 h, 10 µM [2]: 97% | inhibition at 10 µM [3]: 0%

Cc1cn([C@H]2C[C@H](O)[C@](CO)(n3cc(CON4C(=O)c5ccccc5C4=O)nn3)O2)c(=O)[nH]c1=O
inhibition (Hepatitis C virus): inactive | inhibition (West Nile virus): inactive | inhibition at 10 µM (Influenza A virus [1]): 3.7% | viability at 144 h, 10 µM [2]: 99% | inhibition at 10 µM [3]: 1%

Cc1cn([C@H]2C[C@H](O)[C@](CO)(n3cc(COc4ccccc4)nn3)O2)c(=O)[nH]c1=O
inhibition (Hepatitis C virus): inactive | inhibition (West Nile virus): inactive | inhibition at 10 µM (Influenza A virus [1]): 10% | viability at 144 h, 10 µM [2]: 97% | inhibition at 10 µM [3]: 0%

CC(=O)Nc1ccc(-c2cn([C@]3(CO)O[C@@H](n4cc(C)c(=O)[nH]c4=O)C[C@@H]3O)nn2)cc1
inhibition (Hepatitis C virus): inactive | inhibition (West Nile virus): inactive | inhibition at 10 µM (Influenza A virus [4]): 3% | inhibition at 10 µM (Influenza A virus [1]): 54% | viability at 144 h, 10 µM [2]: 98% | inhibition at 10 µM [3]: 0%

Cc1cn([C@H]2C[C@H](O)[C@](CO)(n3cc(C(O)c4ccccc4)nn3)O2)c(=O)[nH]c1=O (stereo partly specified)
inhibition (Hepatitis C virus): inactive | inhibition (West Nile virus): inactive | inhibition at 10 µM (Influenza A virus [1]): 5% | viability at 144 h, 10 µM [2]: 100% | inhibition at 10 µM [3]: 0%

Cc1cn([C@H]2C[C@H](O)[C@](CO)(n3cc(CO)nn3)O2)c(=O)[nH]c1=O
inhibition (Hepatitis C virus): inactive | inhibition (West Nile virus): inactive | inhibition at 10 µM (Influenza A virus [1]): 0% | viability at 144 h, 10 µM [2]: 100% | inhibition at 10 µM [3]: 2%

Cc1ccc(-c2cn([C@]3(CO)O[C@@H](n4cc(C)c(=O)[nH]c4=O)C[C@@H]3O)nn2)cc1
inhibition (Hepatitis C virus): inactive | inhibition (West Nile virus): inactive | inhibition at 10 µM (Influenza A virus [1]): 0% | viability at 144 h, 10 µM [2]: 99% | inhibition at 10 µM [3]: 0%

Cc1cn([C@H]2C[C@H](O)[C@](CO)(n3cc(C4CCCC4)nn3)O2)c(=O)[nH]c1=O
inhibition (Hepatitis C virus): inactive | inhibition (West Nile virus): inactive | inhibition at 10 µM (Influenza A virus [1]): 3.1% | viability at 144 h, 10 µM [2]: 100% | inhibition at 10 µM [3]: 5%

COc1ccc2cc(-c3cn([C@]4(CO)O[C@@H](n5cc(C)c(=O)[nH]c5=O)C[C@@H]4O)nn3)ccc2c1
inhibition (Hepatitis C virus): inactive | inhibition (West Nile virus): inactive | inhibition at 10 µM (Influenza A virus [1]): 0% | viability at 144 h, 10 µM [2]: 95% | inhibition at 10 µM [3]: 18%

Cc1cn([C@H]2C[C@H](O)[C@](CO)(n3cc(-c4ccc(-c5ccccc5)cc4)nn3)O2)c(=O)[nH]c1=O
inhibition (Hepatitis C virus): inactive | inhibition (West Nile virus): inactive | inhibition at 10 µM (Influenza A virus [1]): 1.7% | viability at 144 h, 10 µM [2]: 80% | inhibition at 10 µM [3]: 31%

Cc1cn([C@H]2C[C@H](O)[C@](CO)(n3cc(-c4ccc(N(C)C)cc4)nn3)O2)c(=O)[nH]c1=O
inhibition (Hepatitis C virus): inactive | inhibition (West Nile virus): inactive | inhibition at 10 µM (Influenza A virus [4]): 1% | inhibition at 10 µM (Influenza A virus [1]): 21% | viability at 144 h, 10 µM [2]: 100% | inhibition at 10 µM [3]: 12%

Cc1cn([C@H]2C[C@H](O)[C@](CO)(n3cc(COc4ccc5ccccc5c4)nn3)O2)c(=O)[nH]c1=O
inhibition (Hepatitis C virus): inactive | inhibition (West Nile virus): inactive | inhibition at 10 µM (Influenza A virus [4]): 1% | inhibition at 10 µM (Influenza A virus [1]): 16% | viability at 144 h, 10 µM [2]: 93% | inhibition at 10 µM [3]: 0%

Cc1cn([C@H]2C[C@H](O)[C@](CO)(n3cc(-c4ccsc4)nn3)O2)c(=O)[nH]c1=O
inhibition (Hepatitis C virus): inactive | inhibition (West Nile virus): inactive | inhibition at 10 µM (Influenza A virus [1]): 0% | viability at 144 h, 10 µM [2]: 100% | inhibition at 10 µM [3]: 19%

Cc1cn([C@H]2C[C@H](O)[C@](CO)(n3cc(-c4cc5ccccc5c5ccccc45)nn3)O2)c(=O)[nH]c1=O
inhibition (Hepatitis C virus): inactive | inhibition (West Nile virus): inactive | inhibition at 10 µM (Influenza A virus [1]): 0% | viability at 144 h, 10 µM [2]: 86% | inhibition at 10 µM [3]: 0%

COc1ccc(-c2cn([C@]3(CO)O[C@@H](n4cc(C)c(=O)[nH]c4=O)C[C@@H]3O)nn2)cc1
inhibition (Hepatitis C virus): inactive | inhibition (West Nile virus): inactive | inhibition at 10 µM (Influenza A virus [4]): 1% | inhibition at 10 µM (Influenza A virus [1]): 19% | viability at 144 h, 10 µM [2]: 84% | inhibition at 10 µM [3]: 0%

Cc1cn([C@H]2C[C@H](O)[C@](CO)(n3cc(-c4ccccc4)nn3)O2)c(=O)[nH]c1=O
inhibition (Hepatitis C virus): inactive | inhibition (West Nile virus): inactive | inhibition at 10 µM (Influenza A virus [1]): 0% | viability at 144 h, 10 µM [2]: 94% | inhibition at 10 µM [3]: 62%

Cc1cn([C@H]2C[C@H](O)[C@](CO)(n3cc(-c4ccc(F)cc4)nn3)O2)c(=O)[nH]c1=O
inhibition (Hepatitis C virus): inactive | inhibition (West Nile virus): inactive | inhibition at 10 µM (Influenza A virus [1]): 0% | viability at 144 h, 10 µM [2]: 95% | inhibition at 10 µM [3]: 0%
